Reference: patent US20250101104A1, “BISPECIFIC MOLECULE WITH TUNABLE AFFINITY TO A TARGETED ANTIGEN” (MABSWITCH INC., priority 2022, published 2025)

Tests used:
[1] = system: CD3 positive Jurkat cells; test: Switch activity on living cells, flow cytometry; format: cell-based; settings: incubated with the switch peptide variant SEQ ID NO:2
Method: The bispecific switchable anti-CD3/antiCD33 Fc fusion protein product MS42-13 is further tested for switch activity in the presence and absence of switch linkers on living cells using flow cytometry. For the cytofluorometry analysis, CD3 positive Jurkat cells (ATCC, Clone E6-1), cultivated in suspension culture as described by the provider, are seeded in FACS tubes and washed with 3 mL PBS supplemented with 2 mM EDTA and 2% (v/v) FCS (centrifugation for 5 min at 500×g and 4-C). Cells are incubated with […] of various dilutions of scFv-Fc bispecific antibody constructs (between 10 ng/mL and […]) for 1 h on ice. Cells are washed two times with 3 mL PBS (centrifugation for 5 min at 500×g and 4-C) and are incubated with 100 μL Fc-fusion of CD33 that carried an AviTag™ (biotinylated) (BPS Bioscience, Inc., San Diego, USA) (Fc-specific) for 1 h on ice in the dark in either the presence or absence of the switch peptides (1 μM or 10 μM). […] A minimum of 10^4 events are analyzed per sample. Analysis is performed with CXP analysis 2.2 software (Beckman Coulter, Fullerton, CA) and Mean Fluorescence Intensities (MFI) are determined using Flowjo™ software (Treestar).

[2] = target: T1, Human CD3 epsilon&CD3 gamma Heterodimer Protein (Homo sapiens, UniProt P07766); test: Bispecific functionality ELISA (captured CD3, detection with biotinylated CD33 Fc-fusion); format: binding; settings: affinity to the CD3 antigen
T1 construct: purchased Biorbyt Ltd, Cambridge, United Kingdom
T1 sequence (P07766 23-126 limits assumed): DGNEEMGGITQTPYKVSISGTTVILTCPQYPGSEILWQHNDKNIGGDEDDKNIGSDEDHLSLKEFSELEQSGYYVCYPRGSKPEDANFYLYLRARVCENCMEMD
T1 sequence (P09693 23-116 partner limits assumed): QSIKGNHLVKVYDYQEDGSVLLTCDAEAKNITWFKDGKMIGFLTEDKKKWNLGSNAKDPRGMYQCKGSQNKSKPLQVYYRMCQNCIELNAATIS
Method: Bispecific functionality is tested in an ELISA using soluble Human CD3 epsilon&CD3 gamma Heterodimer Protein (Biorbyt Ltd, Cambridge, United Kingdom) that is captured to the ELISA plate surface and an Fc-fusion of CD33 that carried an AviTag™ (biotinylated) (BPS Bioscience, Inc., San Diego, USA) detected by HRP conjugated streptavidin (BPS Bioscience, Inc., San Diego, USA). Dilution curves of the protein A purified bispecific scFv-Fc constructs are compared. For control, a bispecific scFv-Fc construct wherein the linker between the OKT3 variable heavy chain sequence to the OKT3 variable light chain sequence is a non-switchable variant (GGGGSGGGGSGG GGS (SEQ ID NO: 365)) is constructed, produced and purified as described above.

[3] = system: circulating CD123^+ cells; settings: cited from earlier work
TF-1 AML cell lines = settings: cited from earlier work
[4] = mice; cited from earlier work
CD123+KG-1a = settings: cited from earlier work

drop in EC50 compared to the construct with the non-switchable wild type Gly-Ser linker [2] [fold]	Substance	increase of half-maximal binding compared to the construct with the non-switchable linker (SEQ ID NO:365) [1] [fold]	T cell activation ([3]; cynomolgus monkeys)	depletion of circulating CD123+ cells including basophils and plasmacytoid dendritic cells ([3]; within 1 hour of administration)	EC50 of T cell-mediated killing (TF-1 AML cell lines) [ng/mL]	serum half-life [4] [h]	EC50 of T cell-mediated killing (CD123+KG-1a) [ng/mL]
24.6	MS42-13: switchable bispecific anti-CD3/anti-CD33 scFv-Fc fusion: OKT3 scFv with calmodulin switch linker, gemtuzumab scFv, knob-into-hole Fc (SEQ ID NO:366, 367)	≤ 21.3					
	XmAb14045: Fc domain-containing bispecific antibody stimulating T cell-mediated killing of CD123+ cells		strongly activated T cells	over 99%	< 1	149	< 1
